Source: patent US6358982B1, “Heterocyclyl sulphonamide derivatives” (Eli Lilly and Company, priority 1998, dated 2002)

Target: T1, human GluR4B receptor (Homo sapiens, UniProt P48058)
T1 construct: expressed in transfected cells
Assay: potentiation of agonist-induced excitability of human GluR4B receptor expressed in HEK 293 cells (Fluo-3 calcium fluorescence)
Assay type: cell-based
Details: human GluR4B expressed in HEK 293 cells
From the text: The ability of compounds of formula I to potentiate glutamate receptor-mediated response may be determined using fluorescent calcium indicator dyes (Molecular Probes, Eugene, Oreg., Fluo-3) and by measuring glutamate-evoked efflux of calcium into GluR4 transfected HEK293 cells, as described in more detail below.
In one test, 96 well plates containing confluent monolayers of HEK cells stably expressing human GluR4B (obtained as described in European Patent Application Publication Number EP-A1-583917) are prepared. The tissue culture medium in the wells is then discarded, and the wells are each washed once with 200 μl of buffer (glucose, 10 mM, sodium chloride, 138 mM, magnesium chloride, 1 mM, potassium chloride, 5 mM, calcium chloride, 5 mM, N-[2-hydroxyethyl]-piperazine-N-[2-ethanesulfonic acid], 10 mM, to pH 7.1 to 7.3). […]
Each test is then performed as follows. […] A second fluorescent reading is taken after 5 minutes incubation. 15 μl of 400 μM glutamate solution is then added to each well (final glutamate concentration […]), and a third reading is taken. The activities of test compounds and cyclothiazide solutions are determined by subtracting the second from the third reading (fluorescence due to addition of glutamate in the presence or absence of test compound or cyclothiazide) and are expressed relative to enhance fluorescence produced by 100 μM cyclothiazide.

T1 sequence (P48058 21-902): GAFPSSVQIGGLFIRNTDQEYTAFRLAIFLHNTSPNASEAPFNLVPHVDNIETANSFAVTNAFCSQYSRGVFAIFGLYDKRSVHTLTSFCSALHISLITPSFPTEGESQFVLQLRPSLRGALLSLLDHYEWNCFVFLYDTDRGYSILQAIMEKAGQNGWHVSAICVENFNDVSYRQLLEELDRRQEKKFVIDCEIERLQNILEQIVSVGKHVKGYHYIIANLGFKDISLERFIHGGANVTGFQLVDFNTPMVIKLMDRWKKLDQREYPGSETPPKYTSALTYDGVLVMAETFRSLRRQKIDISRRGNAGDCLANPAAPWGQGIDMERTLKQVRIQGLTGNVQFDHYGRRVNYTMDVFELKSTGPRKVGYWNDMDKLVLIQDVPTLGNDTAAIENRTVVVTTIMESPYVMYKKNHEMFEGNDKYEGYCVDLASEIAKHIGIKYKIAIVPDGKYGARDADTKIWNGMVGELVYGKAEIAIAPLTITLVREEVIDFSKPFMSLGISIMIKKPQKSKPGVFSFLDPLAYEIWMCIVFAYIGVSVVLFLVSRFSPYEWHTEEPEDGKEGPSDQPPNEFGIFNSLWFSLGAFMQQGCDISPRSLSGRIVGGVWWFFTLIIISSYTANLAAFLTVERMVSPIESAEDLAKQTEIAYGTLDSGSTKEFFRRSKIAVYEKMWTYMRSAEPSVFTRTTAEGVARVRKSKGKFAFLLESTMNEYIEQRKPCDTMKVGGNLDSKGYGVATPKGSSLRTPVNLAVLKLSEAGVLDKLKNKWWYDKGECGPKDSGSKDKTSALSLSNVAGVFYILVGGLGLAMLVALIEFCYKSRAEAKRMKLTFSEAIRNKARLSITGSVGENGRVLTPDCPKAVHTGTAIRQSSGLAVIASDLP

## NS(=O)(=O)c1cc2c(cc1Cl)NC(C1CC3C=CC1C3)NS2(=O)=O (stereo not shown) [cyclothiazide]
  potentiation of agonist-induced excitability of human GluR4B receptor: potentiate
